Here are results for three compounds from patent publication US6403615B1, “2-Aryl-3-aroylbenzo {b} thiophenes useful for the treatment of estrogen deprivation syndrome” (Eli Lilly and Company, priority 1997, dated 2002).

The subject of series [1] is ovariectomized (OVX) rats. Put plainly: Osteoporosis (bone mineral density) in ovariectomized rat model. Format: in vivo, Sprague Dawley rats. The settings on record: oral in 20% hydroxypropyl β-cyclodextrin, daily for 35 days, femur x-ray image analysis, tibia quantitative computed tomography. The source says:
Seventy-five day old female Sprague Dawley rats (weight range of 200g to 225 g) are obtained from Charles River Laboratories (Portage, Mich.). The animals are either bilaterally ovariectomized (OVX) or exposed to a Sham surgical procedure at Charles River Laboratories, and then shipped after one week. Upon arrival, they are housed in metal hanging cages in groups of 3 or 4 per cage and have ad libitum access to food (calcium content approximately 0.5%) and water for one week. Room temperature is maintained at 22.2°±1.7° C. with a minimum relative humidity of 40%. The photoperiod in the room is 12 hours light and 12 hours dark.
Following the General Procedure, infra, the rats are treated daily for 35 days (6 rats per treatment group) and sacrificed by carbon dioxide asphyxiation on the 36th day. The 35 day time period is sufficient to allow maximal reduction in bone density, measured as described herein. At the time of sacrifice, the uteri are removed, dissected free of extraneous tissue, and the fluid contents are expelled before determination of wet weight in order to confirm estrogen deficiency associated with complete ovariectomy. […]
The right femurs are excised and digitilized x-rays generated and analyzed by an image analysis program (NIH image) at the distal metaphysis. The proximal aspect of the tibiae from these animals are also scanned by quantitative computed tomography.

SMILES strings stand for the structures.

As for `COc1ccc(C(=O)c2c(-c3ccc(O)cc3)sc3cc(O)ccc23)cc1` [Example 2, 2-(4-Hydroxyphenyl)-3-(4-Methoxybenzoyl)-6-Hydroxybenzo[b]thiophene], the melting point was 138 to 140 °C.
Compound `COc1ccc(-c2sc3cc(OC)ccc3c2C(=O)c2ccc(O)cc2)cc1` [Example 3, 2-(4-Methoxyphenyl)-3-(4-Hydroxybenzoyl)-6-Methoxybenzo[b]thiophene] came in with a melting point of 114 to 116 °C.
On to `C#C[C@]1(O)CC[C@H]2[C@@H]3CCc4cc(O)ccc4[C@H]3CC[C@@]21C` [ethynyl estradiol, 17-α-ethynyl estradiol], for which the “loss of bone mineral density” value in series [1] is “a reduction in the loss of bone mineral density”.
